Test results taken from patent US4031218A, “7-(2,3-Dihydroxypropyl-1,3-di-n-propylxanthine and a pharmaceutical composition containing same useful as a bronchial muscle relaxant” (Mallinckrodt, Inc., priority 1976, dated 1977).
In brackets after ≈: the same amount, converted by molar mass.

How the values were obtained:
[1] = Kattus et al. 1951; cited from earlier work
[2] = Summary of relative molar activities (means and therapeutic efficacy); conditions: mean bronchodilator (therapeutic) activity divided by mean acute toxic and side effect activity
From the text: ^g - Mean bronchodilator (therapeutic) activity divided by mean acute

dogs [3] = conditions: dog, in vivo, iv
Protocol: Acute Intravenous Evaluation in Dogs
Compounds were tested in two dogs each. Animals were initially hydrated with 30 ml/kg of water, orally; then anesthetized with pentobarbital sodium, 30-35 mg/kg i.v. One femoral vein was cannulated and a constant intravenous infusion of warm saline (3 ml/min.) was begun and continued throughout the experiment. The contralateral femoral vein was also cannulated for intravenous drug administration. Urine was directly collected from bilateral ureter cannulae. After a 20-minute control collection period, the first dose of the appropriate compound was injected and urine was collected at 20-minute intervals for a period of one hour. This procedure was repeated for two additional doses of the same compound. Urine volume, pH, and sodium and potassium levels were determined for each 20-minute collection period and sums were obtained for the one-hour period after each dose. Test results, reported as successive changes in each parameter, were compared accordingly.

human bronchodilator = assay: Estimated human bronchodilator dose equivalent to recommended theophylline dose; conditions: based on recommended theophylline dose and relative bronchodilator activities
From the text: Experimental results are summarized in Table I wherein pharmacologic and toxicologic activities relative to that of theophylline are expressed on a molar basis.
^a - Dose: Based on the recommended dose for theophylline and the
relative activities in the bronchodilator experiments.

dogs [4] = assay: Intravenous emetic study in dogs (ED50); format: in vivo, dog; conditions: estimated at HBD
Protocol: (§1) Twelve adult mongrel dogs of either sex were employed to determine the median emetic dose (ED50) of all five experimental compounds after intravenous administration. […] Onset, frequency, and duration of emetic episodes were also recorded. The dogs were not fasted, were allowed at least 2 days rest between doses, and no animal received the same compound twice in succession. […] ED50 values were calculated according to the method of Litchfield and Wilcoxon (1949).

[5] = Intravenous emetic study in dogs (ED50); format: in vivo, dog; conditions: dog, in vivo, iv; read-out: ED50 (median emetic dose), I.V. Dogs
Protocol: as §1

[6] = prior art statement; cited from earlier work
dogs [7] = conditions: dog, in vivo, iv; remark: listed apart in the source
Protocol: Intravenous Cardiovascular Evaluation in Dogs
Thirteen adult mongrel dogs of either sex ranging in weight from 16.7 to 25.0 kg were employed to compare the overall intravenous cardiovascular activity of the five experimental compounds.
Dogs were anesthetized with pentobarbital sodium, 30-35 mg/kg i.v., fitted with a cuffed endotracheal tube, and ventilated with a Harvard Animal Respiratory Pump. A femoral vein was cannulated for i.v. drug administration. The left common carotid artery was cannulated and the cannula tip advanced into the aortic arch. A median sternotomy was performed and appropriately sized electromagnetic blood flow transducers (Biotronex) were placed around the ascending aorta and left anterior descending coronary artery. These procedures allowed continuous recording or calculation of the following parameters:
a. Mean Arterial Pressure (MAP); from the aortic cannula.
b. Heart Rate (HR); electronically from pulsatile ascending aortic flow.
c. Cardiac Output (CO); mean ascending aortic flow.
d. Myocardial Contractile Force (MCF); dQ/dt, the first derivative of maximum aortic flow rate, also known as peak aortic flow acceleration.
e. Stroke Volume (SV); quotient of CO/HR.
f. Cardiac Work (CW); product of CO X MAP.
g. Total Peripheral Resistance (TPR); quotient of MAP/CO.
h. Coronary Flow (CF); mean left anterior descending (LAD) coronary flow.
i. Coronary Resistance (CR); quotient of MAP/CF.
Logarithmically increasing doses of the appropriate compound were injected at 20-minute intervals. Responses were measured at 1, 2, 5, 10, 15 and 20 minutes after each dose and the average response during that period was calculated. Theophylline (aminophylline), dyphylline (II), and Compound V were employed in both 20 and 80 mg/ml concentrations in distilled water. Compounds III and IV were used in 10 and 30 mg/ml concentrations respectively.

dogs [8] = assay: Oral minimum emetic dose in dogs; format: in vivo, dog
Protocol: 2. Oral Minimum Emetic Dose
The minimum dose of each compound which causes emesis after oral administration was estimated in a group of five adult mongrel dogs of either sex. Logarithmically increasing or decreasing (depending upon response) doses of each compound were administered orally via a flexible stomach tube. The compounds were dissolved in distilled water in concentrations to allow a constant volume dose of 5 ml/kg. […] Onset, frequency, and duration of emetic episodes as well as signs of CNS stimulation were also recorded.

Compound: CCCn1c(=O)c2[nH]cnc2n(CCC)c1=O [1,3-dipropyl, 1,3-dipropyl xanthine]
- Diuretic and emetic properties in words (prior art) [1]: extremely potent

Compound: Cn1c(=O)c2[nH]cnc2n(C)c1=O [Compound I, 1,3-dimethylxanthine]
- Therapeutic Efficacy [2]: 1.00
- Diuretic Activity, I.V. Dogs (dogs [3]): Mild
- Estimated Human Bronchodilator Dose (HBD), per 70 kg (human bronchodilator): 200 mg/70 kg
- Estimated Human Bronchodilator Dose (HBD), per kg (human bronchodilator): 2.9 mg/kg
- solubility (Solubility; water): 8000 µg/mL (≈ 44.4 mM)
- Solubility in words (Solubility; water solubility, qualitative): poor solubility
- Emetic effect, I.V. Dogs (dogs [4]): None
- ED50 [5]: 58 mg/kg
- Water solubility in words (prior art) [6]: lack of water solubility
- CF (coronary flow) change (dogs [7]): +21 %Δ
- CO (cardiac output) change (dogs [7]): +7 %Δ
- CW (cardiac work) change (dogs [7]): -5 %Δ
- Cardiovascular effects (Mean) (dogs [7]): 12
- HR (heart rate) change (dogs [7]): +11 ΔBPM
- MAP (mean arterial pressure) change (dogs [7]): -12 ΔmmHg
- MCF (myocardial contractile force) change (dogs [7]): +17 %Δ
- TPR (total peripheral resistance) change (dogs [7]): -12 %Δ
- MED (minimum emetic dose), P.O. Dogs (dogs [8]): 128 mg/kg
- Emetic effect, P.O. Dogs (dogs [8]; estimated at HBD): None

Compound: CCn1c(=O)c2[nH]cnc2n(CC)c1=O [1,3-diethyl, 1,3-diethyl xanthine]
- Diuretic and emetic properties in words (prior art) [1]: extremely potent

Compound: CCCCn1c(=O)c2[nH]cnc2n(CCCC)c1=O [1,3-dibutyl xanthine]
- Diuretic and emetic properties in words (prior art) [1]: extremely potent
